The experiment deals with PDE1A (Homo sapiens, UniProt P54750). Kind of experiment: PDE1A dose response, Cyclic Nucleotide Phosphodiesterase Assay Kit from Biomol (colorimetric). It counts as biochemical. The conditions noted are these: purified PDE1A enzyme, 100 μM cAMP. In outline:
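Purified PDE1A hydrolysed 100 μM cAMP with 5′-nucleotidase in Tris 20 mM pH 7.4 with calmodulin, Ca2+, Mg2+, 45 min at 37° C. Released phosphate read by malachite-green absorbance at 615 nm. Duplicate 8-point 1/3 dilutions from 20 μM, 1% DMSO; 10 μM vardenafil defined 100% inhibition.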
In the case of `COc1cccc(C(=O)N2CCCC(c3nc4c(cnn4-c4ccccc4)c(=O)[nH]3)C2)c1` (centres unmarked) [Example 68, 6-(1-(3-methoxybenzoyl)piperidin-3-yl)-1-phenyl-1H-pyrazolo[3,4-d]pyrimidin-4(5H)-one], the half-maximal inhibitory concentration (IC50) – broadly, the concentration that inhibits the measured activity by half – was in the range of 0.101 to 0.5 µM. `Cc1nn(C2CCCCC2)c2nc(C3CCCN(C(=O)c4ccc(C(F)(F)F)cc4)C3)[nH]c(=O)c12` (centres unmarked) [Example 96, 1-cyclohexyl-3-methyl-6-(1-(4-(trifluoromethyl)benzoyl)piperidin-3-yl)-1H-pyrazolo[3,4-d]pyrimidin-4(5H)-one] yielded an IC50 of 0.501 to 1 µM. Regarding `CN1CCN(c2ccc3[nH]c(N4CC(c5nc6c(cnn6C(C)(C)C)c(=O)[nH]5)C4)nc3c2)CC1` [Example 144, 1-tert-butyl-6-(1-(5-(4-methylpiperazin-1-yl)-1H-benzo[d]imidazol-2-yl)azetidin-3-yl)-1H-pyrazolo[3,4-d]pyrimidin-4(5H)-one], the 50% inhibitory concentration (IC50) was in the range of 0.101 to 0.5 µM. Take `CN(C)c1cccc(C(=O)N2CCCC(c3nc4c(cnn4C4CCCCC4)c(=O)[nH]3)C2)c1` (centres unmarked) [Example 45, 1-cyclohexyl-6-(1-(3-(dimethylamino)benzoyl)piperidin-3-yl)-1H-pyrazolo[3,4-d]pyrimidin-4(5H)-one]: the IC50 was in the range of 0.101 to 0.5 µM. The compound `N#Cc1ccc(N2CC(c3nc4c(cnn4C4CCCCC4)c(=O)[nH]3)C2)cc1` [Example 148, 4-(3-(1-cyclohexyl-4-oxo-4,5-dihydro-1H-pyrazolo[3,4-d]pyrimidin-6-yl)azetidin-1-yl)benzonitrile] came in with a half-inhibitory concentration (IC50) of 0.001 to 0.1 µM.

For `Cc1nn(C2CCCCC2)c2nc(C3CCCN(C(=O)c4ccc(N(C)C)cc4)C3)[nH]c(=O)c12` (centres unmarked) [Example 59, 1-cyclohexyl-6-(1-(4-(dimethylamino)benzoyl)piperidin-3-yl)-3-methyl-1H-pyrazolo[3,4-d]pyrimidin-4(5H)-one], the IC50 lay in the range of 0.101 to 0.5 µM.

`Cc1nn(C2CCCCC2)c2nc(C3CCCN(S(=O)(=O)c4ccccc4OC(F)(F)F)C3)[nH]c(=O)c12` (centres unmarked) [Example 107, 1-cyclohexyl-3-methyl-6-(1-(2-(trifluoromethoxy)phenylsulfonyl)piperidin-3-yl)-1H-pyrazolo[3,4-d]pyrimidin-4(5H)-one] gave a concentration for half-maximal inhibition (IC50) of 1 to 1.5 µM.

The compound `N#Cc1ccccc1N1CC(c2nc3c(cnn3C3CCCCC3)c(=O)[nH]2)C1` [Example 150, 2-(3-(1-cyclohexyl-4-oxo-4,5-dihydro-1H-pyrazolo[3,4-d]pyrimidin-6-yl)azetidin-1-yl)benzonitrile] displayed an IC50 of 0.101 to 0.5 µM. Compound `O=C(NC1CCCCC1)N1CC(c2nc3c(cnn3C3CCCCC3)c(=O)[nH]2)C1` [Example 23, N-cyclohexyl-3-(1-cyclohexyl-4-oxo-4,5-dihydro-1H-pyrazolo[3,4-d]pyrimidin-6-yl)azetidine-1-carboxamide] displayed an IC50 of 0.001 to 0.1 µM.

With `O=c1[nH]c(C2CN(c3ncc(CN4CCCCC4)s3)C2)nc2c1cnn2C1CCCCC1` [Example 135, 1-cyclohexyl-6-(1-(5-(piperidin-1-ylmethyl)thiazol-2-yl)azetidin-3-yl)-1H-pyrazolo[3,4-d]pyrimidin-4(5H)-one], the IC50 fell in the range of 0.101 to 0.5 µM. The compound `Cc1nn(C2CCCCC2)c2nc(C3CN(C(=O)N(C)Cc4ccc(F)cc4)C3)[nH]c(=O)c12` [Example 170, 3-(1-Cyclohexyl-3-methyl-4-oxo-4,5-dihydro-1H-pyrazolo[3,4-d]pyrimidin-6-yl)-N-(4-fluorobenzyl)-N-methylazetidine-1-carboxamide] registered an IC50 of 0.101 to 0.5 µM. Turning to `Cc1nn(C2CCC2)c2nc(C3CCCN(C(=O)c4ccc(C#N)cc4)C3)[nH]c(=O)c12` (centres unmarked) [Example 102, 4-(3-(1-cyclobutyl-3-methyl-4-oxo-4,5-dihydro-1H-pyrazolo[3,4-d]pyrimidin-6-yl)piperidine-1-carbonyl)benzonitrile], the IC50 lay in the range of 1 to 1.5 µM. `COc1ccccc1N1CC(c2nc3c(cnn3C3CCCCC3)c(=O)[nH]2)C1` [Example 169, 1-cyclohexyl-6-(1-(2-methoxyphenyl)azetidin-3-yl)-1H-pyrazolo[3,4-d]pyrimidin-4(5H)-one] had a concentration for half-maximal inhibition (IC50) of 0.101 to 0.5 µM.

For the compound `O=c1[nH]c(C2CN(c3nc(-c4ccccc4)c(CN4CCOCC4)s3)C2)nc2c1cnn2C1CCCCC1` [Example 162, 1-Cyclohexyl-6-(1-(5-morpholin-4-ylmethyl-4-phenylthiazol-2-yl)azetidin-3-yl)-1H-pyrazolo[3,4-d]pyrimidin-4-(5H)-one], the half-inhibitory concentration (IC50) was 0.001 to 0.1 µM. Compound `Cn1c(N2CC(c3nc4c(cnn4C4CCCCC4)c(=O)[nH]3)C2)nc2ccccc21` [Example 131, 1-cyclohexyl-6-(1-(1-methyl-1H-benzo[d]imidazol-2-yl)azetidin-3-yl)-1H-pyrazolo[3,4-d]pyrimidin-4(5H)-one] returned an IC50 of 0.501 to 1 µM.

`O=c1[nH]c(C2CN(c3nc4ccccc4s3)C2)nc2c1cnn2C1CCCCC1` [Example 129, 6-(1-(benzo[d]thiazol-2-yl)azetidin-3-yl)-1-cyclohexyl-1H-pyrazolo[3,4-d]pyrimidin-4(5H)-one] displayed an IC50 of 0.101 to 0.5 µM. Take `CCCCNC(=O)N1CC(c2nc3c(cnn3C3CCCCC3)c(=O)[nH]2)C1` [Example 34, N-butyl-3-(1-cyclohexyl-4-oxo-4,5-dihydro-1H-pyrazolo[3,4-d]pyrimidin-6-yl)azetidine-1-carboxamide]: the IC50 fell in the range of 0.001 to 0.1 µM.

On to `COc1ccc(N2CC(c3nc4c(cnn4C4CCCCC4)c(=O)[nH]3)C2)cc1` [Example 165, 1-cyclohexyl-6-(1-(4-methoxyphenyl)azetidin-3-yl)-1H-pyrazolo[3,4-d]pyrimidin-4(5H)-one], for which the half-inhibitory concentration (IC50) is 0.101 to 0.5 µM. Compound `CN1CCN(c2ccc(NC(=O)N3CC(c4nc5c(cnn5C5CCCCC5)c(=O)[nH]4)C3)cc2)CC1` [Example 3, 3-(1-cyclohexyl-4-oxo-4,5-dihydro-1H-pyrazolo[3,4-d]pyrimidin-6-yl)-N-(4-(4-methylpiperazin-1-yl)phenyl)azetidine-1-carboxamide] showed an IC50 of 0.001 to 0.1 µM. Turning to `COc1cccc(C(=O)N2CCCC(c3nc4c(c(C)nn4C4CCC4)c(=O)[nH]3)C2)c1` (centres unmarked) [Example 78, 1-cyclobutyl-6-(1-(3-methoxybenzoyl)piperidin-3-yl)-3-methyl-1H-pyrazolo[3,4-d]pyrimidin-4(5H)-one], the half-inhibitory concentration (IC50) was in the range of 0.501 to 1 µM. `Cc1nn(C2CCCCC2)c2nc(C3CCCN(S(=O)(=O)c4cn(C)cn4)C3)[nH]c(=O)c12` (centres unmarked) [Example 98, 1-cyclohexyl-3-methyl-6-(1-(1-methyl-1H-imidazol-4-ylsulfonyl)piperidin-3-yl)-1H-pyrazolo[3,4-d]pyrimidin-4(5H)-one]: the 50% inhibitory concentration (IC50) was in the range of 1 to 1.5 µM. `COc1ccc(S(=O)(=O)N2CCCC(c3nc4c(c(C)nn4C4CCCCC4)c(=O)[nH]3)C2)cc1` (centres unmarked) [Example 56, 1-cyclohexyl-6-(1-(4-methoxyphenylsulfonyl)piperidin-3-yl)-3-methyl-1H-pyrazolo[3,4-d]pyrimidin-4(5H)-one] returned a concentration for half-maximal inhibition (IC50) of 0.101 to 0.5 µM. In the case of `COc1ccccc1C(=O)N1CCCC(c2nc3c(cnn3C3CCCCC3)c(=O)[nH]2)C1` (centres unmarked) [Example 48, 1-cyclohexyl-6-(1-(2-methoxybenzoyl)piperidin-3-yl)-1H-pyrazolo[3,4-d]pyrimidin-4(5H)-one], the IC50 was in the range of 0.101 to 0.5 µM. `O=C(Nc1ccc(N2CCOCC2)cc1)N1CC(c2nc3c(cnn3C3CCCCC3)c(=O)[nH]2)C1` [Example 10, 3-(1-cyclohexyl-4-oxo-4,5-dihydro-1H-pyrazolo[3,4-d]pyrimidin-6-yl)-N-(4-morpholinophenyl)azetidine-1-carboxamide]: the IC50 lay within 0.001 to 0.1 µM.

For the compound `CN(C)c1ccc(C(=O)N2CCCC(c3nc4c(cnn4-c4ccccc4)c(=O)[nH]3)C2)cc1` (centres unmarked) [Example 67, 6-(1-(4-(dimethylamino)benzoyl)piperidin-3-yl)-1-phenyl-1H-pyrazolo[3,4-d]pyrimidin-4(5H)-one], the IC50 was in the range of 0.101 to 0.5 µM. As to `Cc1nn(C2CCCCC2)c2nc(C3CCCN(C(=O)c4cccn4C)C3)[nH]c(=O)c12` (centres unmarked) [Example 95, 1-cyclohexyl-3-methyl-6-(1-(1-methyl-1H-pyrrole-2-carbonyl)piperidin-3-yl)-1H-pyrazolo[3,4-d]pyrimidin-4(5H)-one], the IC50 fell in the range of 0.501 to 1 µM. In the case of `COc1ccc(S(=O)(=O)N2CCCC(c3nc4c(cnn4C4CCCCC4)c(=O)[nH]3)C2)cc1` (centres unmarked) [Example 51, 1-cyclohexyl-6-(1-(4-methoxyphenylsulfonyl)piperidin-3-yl)-1H-pyrazolo[3,4-d]pyrimidin-4(5H)-one] it was 0.101 to 0.5 µM.

Take `Cc1nn(C(C)(C)C)c2nc(C3CN(C(=O)NC4CCCCC4)C3)[nH]c(=O)c12` [Example 15, 3-(1-tert-butyl-3-methyl-4-oxo-4,5-dihydro-1H-pyrazolo[3,4-d]pyrimidin-6-yl)-N-cyclohexylazetidine-1-carboxamide]: the 50% inhibitory concentration (IC50) was in the range of 0.001 to 0.1 µM. In the case of `O=C(Nc1ccc(C(F)(F)F)cc1)N1CC(c2nc3c(cnn3C3CCCCC3)c(=O)[nH]2)C1` [Example 35, 3-(1-cyclohexyl-4-oxo-4,5-dihydro-1H-pyrazolo[3,4-d]pyrimidin-6-yl)-N-(4-(trifluoromethyl)phenyl)azetidine-1-carboxamide] it was 0.001 to 0.1 µM; in that of `Cc1nn(C2CCCCC2)c2nc(C3CCCN(S(=O)(=O)c4ccccc4)C3)[nH]c(=O)c12` (centres unmarked) [Example 106, 1-cyclohexyl-3-methyl-6-(1-(phenylsulfonyl)piperidin-3-yl)-1H-pyrazolo[3,4-d]pyrimidin-4(5H)-one], 1 to 1.5 µM. In the case of `Cc1nn(C2CCCCC2)c2nc(C3CCCN(C(=O)c4ccccc4F)C3)[nH]c(=O)c12` (centres unmarked) [Example 92, 1-cyclohexyl-6-(1-(2-fluorobenzoyl)piperidin-3-yl)-3-methyl-1H-pyrazolo[3,4-d]pyrimidin-4(5H)-one] it was 0.501 to 1 µM. `CC(C)N1CC(n2ncc3c(=O)[nH]c(C4CN(C(=O)Nc5ccc(F)cc5)C4)nc32)C1` [Example 108, N-(4-fluorophenyl)-3-(1-(1-isopropylazetidin-3-yl)-4-oxo-4,5-dihydro-1H-pyrazolo[3,4-d]pyrimidin-6-yl)azetidine-1-carboxamide] yielded a half-maximal inhibitory concentration (IC50) of 1 to 1.5 µM.

The values above are taken from patent US20090137549A1, “Novel compounds useful for the treatment of degenerative & inflamatory diseases” (priority 2006, published 2009).
